Laboratory results from patent US9365556B2, “3,5-diaminopyrazole kinase inhibitors” (Axikin Pharmaceuticals, Inc., priority 2012, dated 2016).

Molecular target: T1, kinase domain protein of RC kinase (Homo sapiens, UniProt Q56UN5)
T1 sequence (Q56UN5 1061-1324 limits assumed): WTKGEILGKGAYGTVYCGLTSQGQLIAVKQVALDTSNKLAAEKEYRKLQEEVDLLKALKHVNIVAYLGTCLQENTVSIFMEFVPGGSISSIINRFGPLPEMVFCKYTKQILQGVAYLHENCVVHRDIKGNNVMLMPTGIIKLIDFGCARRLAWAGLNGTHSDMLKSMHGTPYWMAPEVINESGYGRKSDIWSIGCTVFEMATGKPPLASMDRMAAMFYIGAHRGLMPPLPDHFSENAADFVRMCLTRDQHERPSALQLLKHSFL
Experiment: Enzymatic assay for kinase inhibitory activity (Crebtide substrate, LANCE read-out)
Type: biochemical
Conditions: compound at 1 μM
Procedure: Solutions of a test compound, Crebtide (a substrate), a kinase, and ATP were prepared using 1×MAPK Buffer (50 mM HEPES, 1 mM EGTA, […], 10 mM MgCl2, 2 mM DTT, and 0.01% Tween 20).
To each well, the test compound (1 μL) was first added (in duplicate) to reach a final concentration of 1 μM or 1×IC50 of the compound. The kinase (5 μl) was then added to each well to reach a final concentration of […] for the kinase domain or […] for the full-length domain. Each plate included a positive and negative controls in duplicate wells. Crebtide (2.5 μL) was then added to each well in duplicate to reach a final concentration of 50 nM. If the full-length kinase was used, the plates were incubated for 45 min at room temperature before proceeding further. ATP (2.5 μL) was added to each well to reach a final concentration of 1 μM for the kinase domain and 3 μM for the full-length.
After the addition of ATP, the plates were incubated for 45 min at room temperature. During the incubation, an EDTA solution (40 mM) and anti-Crebtide ([…]) were prepared. Additionally, a detection buffer stock solution was diluted ten fold before use.
After the incubation, the anti-Crebtide (5 μL) and EDTA (5 μL) were added to each well to reach their final concentrations of […] and 10 mM, respectively. The plates were allowed to develop at room temperature for 45 min. The plates were then read at 665 nm and 615 nm using Perkin Elmer Lance machine.
The biological results of inhibition of the kinase domain protein of RC kinase are summarized in Tables 2 and 3, wherein A represents at least 50% inhibition of the RC kinase activity at 1 μM; B represents no greater than 50% but at least 20% inhibition of the RC kinase activity at 1 μM; C represents no greater than 20% but at least 5% inhibition of the RC kinase activity at 1 μM; and D represents no greater than 5% inhibition of the RC kinase activity at 1 μM.

Structure (SMILES): N#Cc1c(Nc2cccc(Cl)c2)n[nH]c1/N=C/c1ccc(-c2ccccn2)s1 [Compound A2]
- inhibition at 1 µM: 20 to 50%

Structure (SMILES): COc1ccc(/C=N/c2[nH]nc(Nc3ccccc3)c2C#N)cc1 [Compound A6]
- Activity (inhibition of the RC kinase activity): B (no greater than 50% but at least 20% inhibition of the RC kinase activity at 1 μM)

Structure (SMILES): COc1cc(/C=N/c2[nH]nc(Nc3cccc(Cl)c3)c2C#N)ccc1O [Compound A17]
- Activity (inhibition of the RC kinase activity): B (no greater than 50% but at least 20% inhibition of the RC kinase activity at 1 μM)

Structure (SMILES): N#Cc1c(Nc2ccccc2)n[nH]c1/N=C/c1ccc(C(F)(F)F)cc1 [Compound A18]
- Activity (inhibition of the RC kinase activity): C (no greater than 20% but at least 5% inhibition of the RC kinase activity at 1 μM)

Structure (SMILES): COc1cccc(/C=N/c2[nH]nc(Nc3cccc(Cl)c3)c2C#N)c1 [Compound A24]
- Activity (inhibition of the RC kinase activity): D (no greater than 5% inhibition of the RC kinase activity at 1 μM)

Structure (SMILES): N#Cc1c(Nc2cccc(Cl)c2)n[nH]c1/N=C/c1ccc[nH]1 [Compound A27]
- Activity (inhibition of the RC kinase activity): C (no greater than 20% but at least 5% inhibition of the RC kinase activity at 1 μM)

Structure (SMILES): N#Cc1c(Nc2ccccc2)n[nH]c1/N=C/c1ccc[nH]1 [Compound A28]
- inhibition at 1 µM: 5 to 20%

Structure (SMILES): N#Cc1c(Nc2ccc(Cl)cc2)n[nH]c1/N=C/c1ccc[nH]1 [Compound A39]
- Activity (inhibition of the RC kinase activity): D (no greater than 5% inhibition of the RC kinase activity at 1 μM)

Structure (SMILES): COc1ccc(Nc2n[nH]c(/N=C/c3ccc(Cl)cc3)c2C#N)cc1 [Compound A44]
- Activity (inhibition of the RC kinase activity): D (no greater than 5% inhibition of the RC kinase activity at 1 μM)

Structure (SMILES): COc1ccc(Nc2n[nH]c(/N=C/c3ccccc3)c2C#N)cc1 [Compound A45]
- Activity (inhibition of the RC kinase activity): D (no greater than 5% inhibition of the RC kinase activity at 1 μM)

Structure (SMILES): N#Cc1c(NC2CCCCC2)n[nH]c1/N=C/c1ccc(O)cc1 [Compound A49, 3-(cyclohexylamino)-5-((4-hydroxybenzylidene)amino)-1H-pyrazole-4-carbonitrile]
- inhibition at 1 µM: ≤ 5%

Structure (SMILES): COc1ccc(/C=N/c2[nH]nc(NC3CCCCC3)c2C#N)cc1 [Compound A50]
- Activity (inhibition of the RC kinase activity): D (no greater than 5% inhibition of the RC kinase activity at 1 μM)

Structure (SMILES): N#Cc1c(NC2CCCCC2)n[nH]c1/N=C/c1ccccc1 [Compound A51]
- Activity (inhibition of the RC kinase activity): D (no greater than 5% inhibition of the RC kinase activity at 1 μM)

Structure (SMILES): Cc1cc(C)cc(Nc2n[nH]c(/N=C/c3ccc(O)cc3)c2C#N)c1 [Compound A55]
- inhibition at 1 µM: 5 to 20%

Structure (SMILES): N#Cc1c(Nc2cc(Cl)cc(Cl)c2)n[nH]c1/N=C/c1ccc(O)cc1 [Compound A56]
- inhibition at 1 µM: 5 to 20%

Structure (SMILES): CC(C)(C)c1ccc(Nc2[nH]nc(N=Cc3ccc(O)cc3)c2C#N)cc1 [Compound A57, 5-((4-(tert-butyl)phenyl)amino)-3-((4-hydroxybenzylidene)amino)-1H-pyrazole-4-carbonitrile]
- inhibition at 1 µM: 5 to 20%

Structure (SMILES): N#Cc1c(Nc2ccc(Cl)c(Cl)c2)n[nH]c1/N=C/c1ccc(O)cc1O [Compound A59]
- inhibition at 1 µM: ≤ 5%

Structure (SMILES): Cn1nc(C(F)(F)F)c(/C=N/c2[nH]nc(Nc3cccc(Cl)c3)c2C#N)c1Cl [Compound A69]
- Activity (inhibition of the RC kinase activity): C (no greater than 20% but at least 5% inhibition of the RC kinase activity at 1 μM)

Structure (SMILES): N#Cc1c(Nc2cccc(Cl)c2)n[nH]c1/N=C/c1nc(-c2ccccc2)[nH]c1Cl [Compound A72]
- Activity (inhibition of the RC kinase activity): B (no greater than 50% but at least 20% inhibition of the RC kinase activity at 1 μM)

Structure (SMILES): N#Cc1c(Nc2cccc(Cl)c2)n[nH]c1/N=C/c1ccc(-c2ccc(Cl)cc2)o1 [Compound A73]
- Activity (inhibition of the RC kinase activity): C (no greater than 20% but at least 5% inhibition of the RC kinase activity at 1 μM)

Structure (SMILES): CN1CCN(c2ccc(/C=N/c3[nH]nc(Nc4cccc(Cl)c4)c3C#N)cc2)CC1 [Compound A74]
- Activity (inhibition of the RC kinase activity): C (no greater than 20% but at least 5% inhibition of the RC kinase activity at 1 μM)

Structure (SMILES): N#Cc1c(Nc2cccc(Cl)c2)n[nH]c1/N=C/c1ccc(Oc2ncccn2)cc1 [Compound A77]
- Activity (inhibition of the RC kinase activity) (1 µM): D (no greater than 5% inhibition of the RC kinase activity at 1 μM)

Structure (SMILES): Cn1c(Cl)c(/C=N/c2[nH]nc(Nc3cccc(Cl)c3)c2C#N)c2ccccc21 [Compound A78]
- Activity (inhibition of the RC kinase activity): C (no greater than 20% but at least 5% inhibition of the RC kinase activity at 1 μM)

Structure (SMILES): COc1cc(/C=N/c2[nH]nc(Nc3cccc(Cl)c3)c2C#N)cc(O)c1OC [Compound A85]
- Activity (inhibition of the RC kinase activity): C (no greater than 20% but at least 5% inhibition of the RC kinase activity at 1 μM)

Structure (SMILES): COc1ccc(/C=N/c2[nH]nc(Nc3cccc(Cl)c3)c2C#N)c(C)c1C [Compound A89]
- Activity (inhibition of the RC kinase activity): C (no greater than 20% but at least 5% inhibition of the RC kinase activity at 1 μM)

Structure (SMILES): N#Cc1c(Nc2cccc(Cl)c2)n[nH]c1/N=C/c1c(O)cccc1Cl [Compound A92]
- Activity (inhibition of the RC kinase activity): D (no greater than 5% inhibition of the RC kinase activity at 1 μM)

Structure (SMILES): Cc1ncsc1/C=N/c1[nH]nc(Nc2cccc(Cl)c2)c1C#N [Compound A104]
- Activity (inhibition of the RC kinase activity): D (no greater than 5% inhibition of the RC kinase activity at 1 μM)

Structure (SMILES): N#Cc1c(Nc2cccc(Cl)c2)n[nH]c1/N=C/c1cccs1 [Compound A105]
- Activity (inhibition of the RC kinase activity): D (no greater than 5% inhibition of the RC kinase activity at 1 μM)

Structure (SMILES): NC(=O)c1c(Nc2ccccc2)n[nH]c1/N=C/c1ccc(O)cc1 [Compound B10]
- Activity (inhibition of the RC kinase activity): A (at least 50% inhibition of the RC kinase activity at 1 μM)

Structure (SMILES): NC(=O)c1c(Nc2ccccc2)n[nH]c1/N=C/c1ccccc1 [Compound B11]
- Activity (inhibition of the RC kinase activity): A (at least 50% inhibition of the RC kinase activity at 1 μM)

Structure (SMILES): NC(=O)c1c(Nc2cccc(Cl)c2)n[nH]c1/N=C/c1ccc(C(F)(F)F)cc1 [Compound B16]
- Activity (inhibition of the RC kinase activity): D (no greater than 5% inhibition of the RC kinase activity at 1 μM)

Structure (SMILES): NC(=O)c1c(Nc2cccc(Cl)c2)n[nH]c1/N=C/c1ccc[nH]1 [Compound B17]
- Activity (inhibition of the RC kinase activity): B (no greater than 50% but at least 20% inhibition of the RC kinase activity at 1 μM)

Structure (SMILES): NC(=O)c1c(Nc2ccc(Cl)cc2)n[nH]c1/N=C/c1ccc(C(F)(F)F)cc1 [Compound B28]
- Activity (inhibition of the RC kinase activity): D (no greater than 5% inhibition of the RC kinase activity at 1 μM)

Structure (SMILES): NC(=O)c1c(Nc2cccc(Cl)c2)n[nH]c1/N=C/c1cc(F)cc2c1OCOC2 [Compound B29]
- Activity (inhibition of the RC kinase activity): D (no greater than 5% inhibition of the RC kinase activity at 1 μM)

Structure (SMILES): COc1cc(/C=N/c2[nH]nc(Nc3ccc(Cl)cc3)c2C(N)=O)ccc1O [Compound B32]
- Activity (inhibition of the RC kinase activity): A (at least 50% inhibition of the RC kinase activity at 1 μM)

Structure (SMILES): NC(=O)c1c(Nc2ccc(Cl)cc2)n[nH]c1/N=C/c1ccccc1OCC(=O)O [Compound B37]
- inhibition at 1 µM: ≤ 5%

Structure (SMILES): NC(=O)c1c(Nc2cccc(Cl)c2)n[nH]c1/N=C/c1cc(O)ccc1O [Compound B38, 3-((3-chlorophenyl)amino)-5-((2,5-dihydroxybenzylidene)amino)-1H-pyrazole-4-carboxamide]
- inhibition at 1 µM: ≥ 50%

Structure (SMILES): NC(=O)c1c(Nc2ccc([N+](=O)[O-])cc2)n[nH]c1/N=C/c1ccccc1 [Compound B39, (E)-5-(benzylideneamino)-3-((4-nitrophenyl)amino)-1H-pyrazole-4-carboxamide]
- inhibition at 1 µM: 5 to 20%

Structure (SMILES): NC(=O)c1c(Nc2cccc(Cl)c2)n[nH]c1/N=C/c1ccc([N+](=O)[O-])c(O)c1 [Compound B45]
- inhibition at 1 µM: 20 to 50%

Structure (SMILES): COc1cccc(O)c1/C=N/c1[nH]nc(Nc2cccc(Cl)c2)c1C(N)=O [Compound B48]
- Activity (inhibition of the RC kinase activity): C (no greater than 20% but at least 5% inhibition of the RC kinase activity at 1 μM)

Structure (SMILES): NC(=O)c1c(Nc2cccc(Cl)c2)n[nH]c1/N=C/c1cc([N+](=O)[O-])ccc1O [Compound B51]
- Activity (inhibition of the RC kinase activity): C (no greater than 20% but at least 5% inhibition of the RC kinase activity at 1 μM)

Structure (SMILES): COc1cc(/C=N/c2[nH]nc(Nc3cccc(Cl)c3)c2C(N)=O)ccc1OCc1cnc(Cl)s1 [Compound B55]
- inhibition at 1 µM: 5 to 20%
